Experiments:
[1] = test system: prelamin A farnesylation (nuclear localization of prelamin A) in HGPS MSCs; assay: Prelamin A localization cell-based assay; set-up: species or system human; conditions: for EC50: Homo sapiens, 48 h treatment, dose-response
Protocol: 2000 HGPS MSCs were plated in black 384-well clear-bottom plates (Corning). After 48 h of drug treatment, cells were fixed in 4% paraformaldehyde (15 minutes, room temperature). Permeabilization, blocking and primary hybridization steps were done concomitantly in a PBS solution supplemented with 0.1% triton X-100 and 1% BSA (Sigma-Aldrich, St. Louis, USA) and rabbit anti-prelamin A (ANTOO45, Diatheva) overnight at 4° C. Cells were stained with the species-specific fluorophore-conjugated secondary anti-rabbit antibody (Invitrogen) (one hour, room temperature) and nuclei were visualized with Hoechst 33342. These steps were automated using a washing/staining station (ELx405 Biotek, RapidStak Thermo, Multidrop Labsystems). Prelamin A localization was analyzed with an ayScan VTI HCS Reader (Cellomics). The first channel was used for nucleus identification (Hoechst 33342 staining) and the second one to identify prelamin A staining. Pictures were acquired with a 5× objective in high-resolution camera mode and were analyzed using the Spot Detector bioapplication. The robustness of the assay was evaluated using the Z′ factor calculated as ollows Z′=1−[3(SDP+SDN)/(MP−MN)] where MP and MN correspond to the means of the positive (tipifarnib 1 μM) and negative (DMSO 0.1%) controls, respectively, and SDP and SDN correspond to their standard deviation.
The primary screen was conducted on Biocell 1800 (Agilent). […]
Data analysis of the screening was performed using a customized Hiscreen application (Discngine, Paris, France) connected to Spotfire software (Tibco Co). Screening robustness was evaluated by calculating for each plate the Z'factor on the percentage of prelaminA nuclei parameter. […]
This study was performed on MSCs derived from HGPS iPS cells, differentiated as previously described (Blondel et al., 2014, Stem Cells Transl Med, VOL. 3: 510-519) and used after ten passages of amplification. […] A high throughput immunostaining assay was developed to robustly quantify prelamin A expression and localization in 384-well plates. […]

HMGCR = biological target: T1, HMGCR (Homo sapiens, UniProt P04035); assay: HMGCR colorimetric activity assay; assay type: biochemical
T1 construct: oxidation of NADPH by the catalytic subunit of HMGCR in the presence of the substrate HMG CoA; purchased Sigma-Aldrich
T1 sequence (P04035 340-888 limits assumed): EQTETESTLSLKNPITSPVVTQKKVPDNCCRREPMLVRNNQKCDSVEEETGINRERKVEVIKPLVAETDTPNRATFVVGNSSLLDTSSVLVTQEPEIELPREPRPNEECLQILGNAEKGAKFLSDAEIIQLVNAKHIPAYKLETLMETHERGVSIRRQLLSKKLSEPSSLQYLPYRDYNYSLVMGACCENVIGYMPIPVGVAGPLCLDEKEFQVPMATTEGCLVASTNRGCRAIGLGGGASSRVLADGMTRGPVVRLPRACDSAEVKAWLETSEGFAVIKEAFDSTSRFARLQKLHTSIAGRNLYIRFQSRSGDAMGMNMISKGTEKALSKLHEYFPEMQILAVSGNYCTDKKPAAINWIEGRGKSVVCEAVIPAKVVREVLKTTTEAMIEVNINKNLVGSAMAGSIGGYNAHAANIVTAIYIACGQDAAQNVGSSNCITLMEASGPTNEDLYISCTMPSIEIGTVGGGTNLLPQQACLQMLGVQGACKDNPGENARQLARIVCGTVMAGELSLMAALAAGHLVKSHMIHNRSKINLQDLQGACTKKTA
Protocol: HMGCR activity was measured using GCoA Reductase Assay Kit (Sigma-Aldrich) according to the manufacturer's protocol. The assay is based on the spectrophotometric measurement of the decrease in absorbance at 340 nm, which represents the oxidation of NADPH by the catalytic subunit of HMGCR in the presence of the substrate HMG CoA.

HGPS MSCs [2] = assay: Live cell imaging (cell density); assay type: cell-based, human; conditions: 7 days
Protocol: HGPS MSCs were seeded at 2500 cells per well in 96-well plates and cultivated during 7 days in presence of the drugs. Cell density was monitored using an IncuCyte ZOOM microscope (Essen Bioscience). Each value corresponds to the mean of cell densities of four pictures taken in three independent wells.

HDJ2 = assay: Western blot analysis of HDJ2 farnesylation; assay type: cell-based, human
FPPS = biological target: T2, FPPS (Homo sapiens, UniProt P14324); assay: FPPS activity assay; assay type: biochemical; set-up: endogenous in cells; host or cells: HGPS MSCs (cell lysate); conditions: concentration inducing 50% of the maximum inhibiting effect of the compound
T2 sequence (P14324 1-419): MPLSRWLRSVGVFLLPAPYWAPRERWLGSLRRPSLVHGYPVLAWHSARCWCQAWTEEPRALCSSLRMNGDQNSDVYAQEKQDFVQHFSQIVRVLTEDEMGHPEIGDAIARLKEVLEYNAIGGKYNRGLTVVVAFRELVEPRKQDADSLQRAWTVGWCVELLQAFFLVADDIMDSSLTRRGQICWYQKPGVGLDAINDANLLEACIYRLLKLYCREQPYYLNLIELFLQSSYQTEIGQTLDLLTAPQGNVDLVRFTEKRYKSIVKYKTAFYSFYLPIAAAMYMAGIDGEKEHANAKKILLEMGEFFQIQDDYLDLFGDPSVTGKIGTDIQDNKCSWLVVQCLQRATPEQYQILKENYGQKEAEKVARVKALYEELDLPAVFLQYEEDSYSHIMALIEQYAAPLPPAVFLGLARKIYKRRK
Protocol: (§1) Cell pellet of HGPS MSCs were resuspended in 25 mM Tris-HCl pH 7.4, 1 mM DTT, 1 mM MgCl2, 1 EDTA, 1 mM PMSF and centrifuged at 10,000×g for 10 min at 4° C. Protein content was determined using Lowry's method. Aliquots of cell lysate containing 100 μg of total proteins were incubated with tested substances at 37° C. for 30 min.
FPPS assay was carried out with some modifications of the procedure of Krisans et al. (Krisans et al., 1994, The Journal of biological chemistry VOL. 269: 14165-14169) and described by Gupta et al. (Gupta et al., 1999, Eur J Med Chem, VOL. 43: 2751-2767). Briefly, FPPS was assayed in 150 μL containing 25 mmol/L Hepes, pH=7, 2 mmol/L MgCl2, 1 mmol/L dithiothreitol, 5 mmol/L KF, 1% A noctyl-β-glucopyranoside, 3.3 μmol/L [4-14C] IPP (18 Ci/mmol), 3 μmol/L unlabeled IPP and 20 μmol/L geranyl diphosphate. Reactions were started by adding 40 μL of treated or untreated cell lysate and incubated for 45 min at 37° C. Reactions were stopped by the addition of 150 μL 2.5 mol/L HCl in 80% ethanol containing 100 μg/mL farnesol as a carrier. The samples were hydrolyzed for 30 min at 37° C. to convert the FPP to farnesol and neutralized by the addition of 150 μL of 10% NaOH. The reaction product (farnesol) was extracted into 1 mL of N-hexane and an aliquot (200 μL) of the organic phase was used for radioactivity counting. Parallel samples were assayed to evaluate the total and the nonspecific radioactivity. In all experiments, enzyme assays were carried out in triplicate.

FT = biological target: T3, FT (Homo sapiens, UniProt P49354+P49356); assay: FT activity assay (Farnesyltransferase [3H] SPA); assay type: biochemical; conditions: concentration inducing 50% of the maximum inhibiting effect of the compound
T3 construct: Reactions were started by adding 40 μL of treated or untreated cell lysate; endogenous in cells; host or cells: HGPS MSCs (cell lysate)
Protocol: as §1
FT activity was determined by Famesyltransferase [3H] SPA enzyme assay (Amersham Life Science, Buckinghamshire, England). Briefly, FT activity was assayed in 20 μl of assay buffer containing 50 mmol/L Hepes, 30 mmol/L MgCl2, 20 mmol/L KCl and 5 mmol/L dithiothreitol, 20 μl of [3H]-FPP (12 pmol) and 20 μl of biotin lamin B. Reactions were started by adding 40 μL of treated or untreated cell lysate and incubated for 1 hour at 37° C. Reactions were stopped by the addition of 150 μL of stop reagent containing SPA bead and counted in a scintillation counter. FT activity was expressed as pmoles of incorporated [3H]-FPP into biotin lamin-B peptide per minute per milligram of total proteins (pmol/min/mg prot). Parallel samples were assayed to evaluate the total and the nonspecific radioactivity. In all experiments enzyme assays were carried out in triplicate.

HGPS MSCs [3] = assay: Nuclear shape abnormalities (lamin A/C immunostaining); assay type: cell-based, human; conditions: 48 h, lamin A/C staining
Protocol: In the 4-steps protocol, cells were fixed in 4% paraformaldehyde (15 minutes, room temperature) before permeabilization and blocking in PBS supplemented with 0.1% triton X-100 and 1% BSA (Sigma-Aldrich, St. Louis, USA). Primary antibodies were incubated one hour at room temperature in blocking buffer. Antibodies included mouse anti-lamins A/C (clone JOL2, Millipore, Billerica, USA), rabbit anti-prelamin A (ANTOO45, Diatheva) and anti-Ki67 (clone Ki-S5, MAB4190, Millipore, Billerica, USA). Cells were stained with the species-specific fluorophore-conjugated secondary antibody (Invitrogen) (one hour, room temperature) and nuclei were visualized with Hoechst 33342.

prelamin A = assay: Western immunoblotting of prelamin A; assay type: cell-based, human; conditions: HGPS MSCs, optimal concentration
Protocol: Whole-cell lysates of MSC were collected, separated by SDS-PAGE, and transferred onto PVPF membrane by liquid transfer method. Blots were blocked in 10% skim milk (Bio-Rad) in tween 0.1% tris-buffered saline (TTBS) 1× one hour at room temperature. The primary antibodies used were a mouse anti-lamins A/C 1:200 (Millipore, JOL2), a rabbit anti-prelamin A 1/100 (ANTOO45, Diatheva) and a β-actin 1/200000 (Sigma). Membranes were incubated during the night at 4° C. Antigen-antibody binding was detected using horseradish peroxidaseconjugated species-specific secondary antibodies (GE-Healthcare, Little Chalfont, UK) followed by enhanced chemiluminescence Western blotting detection reagents (Perkin-Elmer, Waltham, USA).

CCOC(=O)CN1CCN(c2nccc(C(C#N)c3ccccn3)n2)CC1 (stereo not drawn) [Mono-AP25, {4-[4-(Cyano-pyridin-2-yl-methyl)-pyrimidin-2-yl]-piperazin-1-yl}-acetic acid ethyl ester]
efficiency on prelamin A farnesylation (in words) ([1]; dose response): decrease in efficiency

Cc1cccc(CN2CCN(c3nccc(C(C#N)c4ccccn4)n3)CC2)c1 (stereo not drawn) [Mono-AP21, {2-[4-(3-Methyl-benzyl)-piperazin-1-yl]-pyrimidin-4-yl}-pyridin-2-yl-acetonitrile]
EC50 [1]: 1.5 µM

N#CC(c1ccccn1)c1ccnc(N2CCC(O)(Cc3ccccc3)CC2)n1 (stereo not drawn) [Mono-AP3, [2-(4-Benzyl-4-hydroxy-piperidin-1-yl)-pyrimidin-4-yl]-pyridin-2-yl-acetonitrile]
IC50 (μM) HMGCR (HMGCR): No inhibition | cytostatic effect in long term live imaging cultures (HGPS MSCs [2]): less cytostatic than the FTI tipifarnib | unfarnesylated form of HDJ2 (HDJ2): increase of the unfarnesylated form of the protein | IC50 (FPPS): 5.54 µM | IC50 (FT): 0.35 µM | rescue of nuclear shape abnormalities (HGPS MSCs [3]): restoring HGPS MSCs nuclear shape defects at levels not significantly different from the FTI tipifarnib

N#CC(c1ccccn1)c1ccnc(N2CCN(Cc3cccc(F)c3)CC2)n1 (stereo not drawn) [Mono-AP28, {2-[4-(3-Fluoro-benzyl)-piperazin-1-yl]-pyrimidin-4-yl}-pyridin-2-yl-acetonitrile]
EC50 [1]: 2 µM

CCCc1c(C(=O)N2CCN(c3cc(N(C)c4cccc(C)c4)ncn3)CC2)cnn1-c1ccccc1 [Di-AP2, {4-[6-(Methyl-m-tolyl-amino)-pyrimidin-4-yl]-piperazin-1-yl}-(1-phenyl-5-propyl-1H-pyrazol-4-yl)-methanone]
unfarnesylated form of HDJ2 (HDJ2): increase of the unfarnesylated form of the protein | prelamin A level (Western blot) (prelamin A): increased | rescue of nuclear shape abnormalities (HGPS MSCs [3]): restored significantly

Reference: patent US10654838B2, “Aminopyridine compounds useful as inhibitors of protein prenylation” (INSTITUT NATIONAL DE LA SANTE ET DE LA RECHERCHE MEDICALE …, priority 2014, dated 2020)
